Patent US10391143B2, “Mitochondrial-derived peptide MOTS3 regulates metabolism and cell survival” (THE REGENTS OF THE UNIVERSITY OF CALIFORNIA, priority 2013, dated 2019)
Ends that are not written are not given here.

Tests used:
Format in all cases: in vivo
breast cancer (4T1) = assay: Breast cancer subcutaneous allograft mouse model; conditions: 4T1 allograft mice
prostate cancer (22Rv1) = assay: Prostate cancer subcutaneous allograft mouse model; conditions: 22Rv1 allograft mice
ZDF diabetic rats = assay: Blood sugar in ZDF diabetic rats after 6 days of treatment; conditions: IV daily for 6 days; MOTS-c 1 mg per 400 gram rat
Protocol: FIG. 33 describes Day 6 fasting blood sugars. ZDF diabetic rats were followed until their blood sugar was […], at which point treatment was initiated with one of two doses of MOTS-c or insulin, given IV at 8 AM for 6 days. 6 rats per group were used. Fasting blood sugars were measured after 6-days. ANOVA and student t-tests were used for analysis and p-values.
FIG. 34 describes absolute change in blood glucose at Day 6. In the same experiment described in FIG. 33, absolute changes in blood glucose are shown.

Row | Substance | toxicity as reflected by body weight maintenance (breast cancer (4T1)) | toxicity as reflected by body weight maintenance (prostate cancer (22Rv1)) | absolute change in blood glucose at Day 6 (ZDF diabetic rats)
1 | MRWQEMGYIFYPRKLR [MOTS3, MRWQEMGYIFYPRKLR] | not toxic | not toxic | 
2 | insulin: insulin given IV daily for 6 days as comparator in ZDF diabetic rats |  |  | stabilize their blood sugar at levels similar to baseline
